Measurements published in patent US11834453B2, “Substituted pyrimido[5,4-d]pyrimidines as HER2 inhibitors” (Array BioPharma Inc., priority 2020, dated 2023).
Where two headings read alike, the source gives them in different places.

Experiments:
[1] = target: ErbB2 insYVMA (HER2-YVMA, SEQ ID NO: 2) (Homo sapiens, UniProt P04626, INS775YVMA/P1170A); test: biochemical; settings: ErbB2 insYVMA enzyme assay
ErbB2 WT = ErbB2 WT (Homo sapiens (Human), UniProt P04626); test: ErbB enzyme assay (CisBio HTRF KinEASE-TK), Assay 2; assay type: biochemical
Chain of ErbB2 WT (P04626 23-1255): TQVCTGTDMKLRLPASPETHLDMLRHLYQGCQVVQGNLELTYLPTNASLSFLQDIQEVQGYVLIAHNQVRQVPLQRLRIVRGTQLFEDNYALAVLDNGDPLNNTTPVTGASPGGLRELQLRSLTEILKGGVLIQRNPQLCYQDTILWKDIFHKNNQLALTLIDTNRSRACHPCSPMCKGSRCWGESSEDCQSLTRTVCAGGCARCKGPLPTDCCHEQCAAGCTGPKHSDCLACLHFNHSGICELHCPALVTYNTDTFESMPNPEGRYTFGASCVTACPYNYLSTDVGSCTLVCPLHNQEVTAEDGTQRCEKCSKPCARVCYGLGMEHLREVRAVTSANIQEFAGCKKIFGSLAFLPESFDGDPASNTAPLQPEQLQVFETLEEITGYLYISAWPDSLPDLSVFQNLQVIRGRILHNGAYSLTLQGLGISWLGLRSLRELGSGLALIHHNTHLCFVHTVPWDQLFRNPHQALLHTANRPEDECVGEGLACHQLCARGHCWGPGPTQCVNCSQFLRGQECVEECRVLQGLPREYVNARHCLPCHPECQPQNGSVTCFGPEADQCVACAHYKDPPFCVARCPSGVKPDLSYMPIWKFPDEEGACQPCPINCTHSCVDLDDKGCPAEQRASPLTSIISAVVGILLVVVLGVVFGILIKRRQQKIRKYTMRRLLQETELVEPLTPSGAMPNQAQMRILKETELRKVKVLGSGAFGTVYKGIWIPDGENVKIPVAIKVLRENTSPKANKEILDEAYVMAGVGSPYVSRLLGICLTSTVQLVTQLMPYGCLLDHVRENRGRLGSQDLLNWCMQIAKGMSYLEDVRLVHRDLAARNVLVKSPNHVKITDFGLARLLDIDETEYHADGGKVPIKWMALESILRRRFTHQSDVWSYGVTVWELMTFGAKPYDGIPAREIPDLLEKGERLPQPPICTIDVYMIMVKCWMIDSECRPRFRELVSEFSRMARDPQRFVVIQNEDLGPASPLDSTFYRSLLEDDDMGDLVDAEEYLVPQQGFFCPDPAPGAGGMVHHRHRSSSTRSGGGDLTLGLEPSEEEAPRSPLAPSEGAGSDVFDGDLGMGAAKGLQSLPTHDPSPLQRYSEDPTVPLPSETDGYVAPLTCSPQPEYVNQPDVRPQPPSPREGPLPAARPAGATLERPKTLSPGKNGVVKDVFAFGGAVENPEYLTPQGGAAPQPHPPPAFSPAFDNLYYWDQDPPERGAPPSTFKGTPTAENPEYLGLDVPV
Method in brief: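 ErbB2 phosphorylates 250 nM biotin-TK substrate at 1 mM ATP in 25 mM HEPES pH 7.4, 10 mM MgCl2, 0.01% Triton X-100 and 2% DMSO, for 30 min at 22 °C. Product is detected by HTRF with Sa-XL665 and TK-Ab-Cryptate. Percent of control is set by DMSO-only wells and pre-quenched wells.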

EGFR = EGFR (Homo sapiens (Human), UniProt P00533); test: ErbB enzyme assay (CisBio HTRF KinEASE-TK), Assay 3; assay type: biochemical
Method in brief: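 Kinase incubated 30 min at 22 °C with 250 nM biotinylated TK substrate, 1 mM ATP and serially diluted compound in 25 mM HEPES pH 7.4, 10 mM MgCl2, 0.01% Triton X-100, 2% DMSO. Phosphorylation read by HTRF (Sa-XL665/TK-Ab-Cryptate); IC50 from 4-parameter fit of percent of control.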

[2] = target: ErbB2 with Exon 20 YVMA insertion (HER2-YVMA) (Homo sapiens (Human), UniProt P04626, INS775YVMA); test: Cellular phosphorylation assay, constitutive ErbB2 phosphorylation (Y1196) in engineered NIH 3T3 cells, Assay 4; assay type: cell-based
Chain of ErbB2 with Exon 20 YVMA insertion (HER2-YVMA) (P04626 other isoform, or with tags, fused parts or gaps ins YVMA behind 775): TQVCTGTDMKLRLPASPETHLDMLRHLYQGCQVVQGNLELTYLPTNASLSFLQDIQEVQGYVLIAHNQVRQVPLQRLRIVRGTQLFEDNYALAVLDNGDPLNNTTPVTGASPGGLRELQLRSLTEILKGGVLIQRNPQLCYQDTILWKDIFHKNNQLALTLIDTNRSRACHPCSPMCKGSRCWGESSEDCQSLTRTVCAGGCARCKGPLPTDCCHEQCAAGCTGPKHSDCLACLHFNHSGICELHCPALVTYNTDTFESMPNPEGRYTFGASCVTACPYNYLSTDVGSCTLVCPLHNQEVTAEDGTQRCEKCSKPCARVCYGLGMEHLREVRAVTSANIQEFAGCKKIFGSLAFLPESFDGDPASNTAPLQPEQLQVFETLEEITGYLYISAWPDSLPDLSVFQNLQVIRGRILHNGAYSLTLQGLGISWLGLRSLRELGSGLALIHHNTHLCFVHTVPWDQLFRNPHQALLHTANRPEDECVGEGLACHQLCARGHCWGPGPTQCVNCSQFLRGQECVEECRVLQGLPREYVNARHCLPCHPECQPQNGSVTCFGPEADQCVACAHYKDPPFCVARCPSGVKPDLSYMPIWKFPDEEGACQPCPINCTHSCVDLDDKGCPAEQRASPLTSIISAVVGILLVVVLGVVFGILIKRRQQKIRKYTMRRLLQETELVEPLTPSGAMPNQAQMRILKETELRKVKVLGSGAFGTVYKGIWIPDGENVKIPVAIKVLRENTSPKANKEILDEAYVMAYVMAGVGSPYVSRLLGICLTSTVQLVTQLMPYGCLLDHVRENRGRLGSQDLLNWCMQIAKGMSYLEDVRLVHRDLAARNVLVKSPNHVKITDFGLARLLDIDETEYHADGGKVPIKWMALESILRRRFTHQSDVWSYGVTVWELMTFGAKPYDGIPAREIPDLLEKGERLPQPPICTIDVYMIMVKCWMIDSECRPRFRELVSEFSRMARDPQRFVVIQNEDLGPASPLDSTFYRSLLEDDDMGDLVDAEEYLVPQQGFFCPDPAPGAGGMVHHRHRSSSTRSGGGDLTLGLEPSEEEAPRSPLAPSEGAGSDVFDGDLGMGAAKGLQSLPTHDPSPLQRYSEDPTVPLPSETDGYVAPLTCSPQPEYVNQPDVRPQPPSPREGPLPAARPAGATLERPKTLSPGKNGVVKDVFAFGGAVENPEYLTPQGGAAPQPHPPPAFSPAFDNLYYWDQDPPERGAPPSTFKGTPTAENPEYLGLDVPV
Method in brief: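 Engineered NIH 3T3 cells expressing HER2-YVMA treated with compounds 1 h at 37 °C, then formaldehyde-fixed and methanol-permeabilized. pErbB2 Y1196 detected by in-cell infrared immunofluorescence, normalized to GAPDH. IC50 from the normalized curves.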

EGFR wild type (EGFR WT) = EGFR wild type (EGFR WT) (Homo sapiens (Human), UniProt P00533); test: Cellular phosphorylation assay, EGF-stimulated EGFR phosphorylation in engineered NIH 3T3 cells, Phospho-EGFR DuoSet IC ELISA, Assay 5; assay type: cell-based
Method in brief: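 NIH 3T3 cells expressing EGFR WT (20,000/well, attached overnight) were exposed to serially diluted compound for 1 h at 37 °C, then stimulated with 100 ng/ml rEGF for 10 min. Phospho-EGFR in lysates measured by sandwich ELISA optical density; IC50 from curves.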

MDR1 (P-gp) = MDR1 (P-gp) (Homo sapiens (Human), UniProt P08183); test: MDR1 transfected MDCKII canine Mdr1 knockout permeability/efflux, Assay 7; settings: dog, MDCK-MDR1
Chain of MDR1 (P-gp) (P08183 whole entry): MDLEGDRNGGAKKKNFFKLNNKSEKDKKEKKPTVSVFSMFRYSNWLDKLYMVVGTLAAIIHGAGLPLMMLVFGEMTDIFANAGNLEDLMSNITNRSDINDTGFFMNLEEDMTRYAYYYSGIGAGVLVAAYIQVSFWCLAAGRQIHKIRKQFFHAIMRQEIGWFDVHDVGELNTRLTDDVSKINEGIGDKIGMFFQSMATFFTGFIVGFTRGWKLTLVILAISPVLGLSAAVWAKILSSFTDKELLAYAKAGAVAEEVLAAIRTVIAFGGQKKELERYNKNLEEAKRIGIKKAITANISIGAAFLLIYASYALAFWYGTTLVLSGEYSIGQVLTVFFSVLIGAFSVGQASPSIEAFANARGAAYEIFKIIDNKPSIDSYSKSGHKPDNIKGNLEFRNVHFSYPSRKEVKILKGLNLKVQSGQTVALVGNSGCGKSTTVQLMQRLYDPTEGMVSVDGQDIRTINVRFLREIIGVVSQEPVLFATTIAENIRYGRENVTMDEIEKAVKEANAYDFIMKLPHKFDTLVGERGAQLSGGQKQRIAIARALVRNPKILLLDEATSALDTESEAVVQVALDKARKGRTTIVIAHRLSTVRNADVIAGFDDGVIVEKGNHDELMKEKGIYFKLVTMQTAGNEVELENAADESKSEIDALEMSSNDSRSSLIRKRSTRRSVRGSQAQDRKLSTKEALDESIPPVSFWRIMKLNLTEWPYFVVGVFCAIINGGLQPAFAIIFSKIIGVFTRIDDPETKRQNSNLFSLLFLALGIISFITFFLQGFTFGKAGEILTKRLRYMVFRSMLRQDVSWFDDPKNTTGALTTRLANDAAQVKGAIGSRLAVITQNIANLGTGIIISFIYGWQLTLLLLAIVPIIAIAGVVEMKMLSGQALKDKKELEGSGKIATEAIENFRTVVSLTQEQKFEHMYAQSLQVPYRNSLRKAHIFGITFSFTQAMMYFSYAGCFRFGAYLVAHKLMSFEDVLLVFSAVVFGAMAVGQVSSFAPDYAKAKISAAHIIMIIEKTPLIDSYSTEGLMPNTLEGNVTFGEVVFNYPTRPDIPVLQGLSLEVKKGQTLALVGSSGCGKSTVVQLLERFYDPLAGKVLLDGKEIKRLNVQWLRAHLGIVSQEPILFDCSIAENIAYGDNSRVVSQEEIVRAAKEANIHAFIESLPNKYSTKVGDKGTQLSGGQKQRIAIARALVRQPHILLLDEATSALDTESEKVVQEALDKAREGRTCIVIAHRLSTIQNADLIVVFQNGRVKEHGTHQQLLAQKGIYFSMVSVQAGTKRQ
Experimental: Both MDR1 transfected LLC-PK1 (Assay 6) and MDR1 transfected MDCKII canine Mdr1 knockout cells (Assay 7) were cultured and plated according to manufacturer's recommendations with the exception that the passage media for the MDR1 transfected LLC-PK1 cell line contained only 2% fetal bovine serum so as to extend passage time out to seven days.
Both positive and negative controls were used to assess functionality of P-gp or BCRP efflux in the assays. Stock solutions for assay controls and the test article were prepared in DMSO for final test concentration of 1 μM. Final organic concentration in the assay was 1%. All dosing solutions contained 10 μM lucifer yellow to monitor MDCKII cell monolayer integrity.
For the apical to basolateral determination (A to B), 75 μL of the test article in transport buffer were added to the apical side of the individual transwells and 250 μL of basolateral media, without compound or lucifer yellow, were added to each well. For the basolateral to apical determination (B to A), 250 μL of test article in transport buffer were added to each well and 75 μL transport buffer, without compound or lucifer yellow, were added to each transwell. All tests were performed in triplicate, and each compound was tested for both apical to basolateral and basolateral to apical transport. The plates were incubated for 2 hours on a Lab-Line Instruments Titer Orbital Shaker (VWR, West Chester, PA) at 50 rpm and 37° C. with 5% CO2. All culture plates were removed from the incubator, 50 μL of media were removed from the apical and basolateral portion of each well, and added to 150 μL of 1 μM labetalol in 2:1 acetonitrile (ACN): H2O, v/v.
The plates were read using a Molecular Devices (Sunnyvale, CA) Gemini Fluorometer to evaluate the lucifer yellow concentrations at excitation/emission wavelengths of 425/535 nm. These values were accepted when found to be below 2% for apical to basolateral and 5% basolateral to apical flux across the MDR1-transfected LLC-PK1 or BCRP-transfected MDCKII cell monolayers. The plates were sealed, and the contents of each well analyzed by LC MS/MS. The compound concentrations were determined from the ratio of the peak areas of the compound to the internal standard (labetalol) in comparison to the dosing solution.
A MDS Sciex API 4000 (Applied Biosystems, Foster City, CA) mass spectrometer was used for detection of the analytes in the ion spray positive mode. Analyte responses were measured by multiple reaction monitoring (“MRM”) of transitions unique to each compound (the protonated precursor ion and selected product ions for each test article and m/z 329 to m/z 162 for labetalol, the internal standard.
The total run time, including re-equilibration, for a single injection was 1.2 minutes. […] The total run time, including re-equilibration, for a single injection was 0.61 minutes.
An efflux ratio is calculated from the mean apical to basolateral (A-B) Papp data and basolateral to apical (B-A) Papp data: Efflux ratio=Papp(B−A)/Papp(A−B)

BCRP = BCRP (Homo sapiens (Human), UniProt Q9UNQ0); test: BCRP transfected MDCKII canine Mdr1 knockout permeability/efflux, Assay 9; settings: dog
Chain of BCRP (Q9UNQ0 whole entry): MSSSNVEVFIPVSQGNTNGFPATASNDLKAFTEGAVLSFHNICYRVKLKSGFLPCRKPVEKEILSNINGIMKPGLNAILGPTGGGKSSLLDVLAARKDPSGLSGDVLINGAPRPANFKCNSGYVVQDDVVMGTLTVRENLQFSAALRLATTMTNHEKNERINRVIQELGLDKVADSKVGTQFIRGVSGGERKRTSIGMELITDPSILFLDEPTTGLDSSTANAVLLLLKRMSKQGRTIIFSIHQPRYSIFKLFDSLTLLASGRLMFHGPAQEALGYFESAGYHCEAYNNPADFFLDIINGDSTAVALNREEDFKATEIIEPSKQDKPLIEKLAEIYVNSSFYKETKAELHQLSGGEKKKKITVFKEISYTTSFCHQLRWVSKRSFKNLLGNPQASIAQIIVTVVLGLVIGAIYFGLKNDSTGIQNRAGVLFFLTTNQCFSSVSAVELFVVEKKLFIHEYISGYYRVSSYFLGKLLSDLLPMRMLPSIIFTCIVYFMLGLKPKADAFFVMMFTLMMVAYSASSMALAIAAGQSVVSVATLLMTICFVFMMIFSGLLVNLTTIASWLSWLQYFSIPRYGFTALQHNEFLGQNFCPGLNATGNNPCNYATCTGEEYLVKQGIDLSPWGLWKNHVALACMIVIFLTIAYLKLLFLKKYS

[3] = Assay 9 Pe Ratio, efflux ratio Papp(B-A)/Papp(A-B), BCRP transfected MDCKII canine Mdr1 knockout

SMILES	IC50 ([1]; read-out: Assay 1 IC50) [nM]	IC50 (ErbB2 WT) [nM]	IC50 (EGFR) [nM]	IC50 [2] [nM]	IC50 (EGFR wild type (EGFR WT)) [nM]	efflux ratio at 2 h, 1 μM (MDR1 (P-gp))	efflux ratio at 2 h, 1 μM (BCRP; [3])	efflux ratio at 2 h, 1 μM (BCRP)	IC50 ([1]; Assay 1 IC50 (nM)) [nM]
Cc1cc(Nc2ncnc3cnc(N4CCC5COCC54)nc23)ccc1Oc1ccc2c(c1)ncn2C (stereo not drawn) [Example 129, 6-(hexahydro-1H-furo[3,4-b]pyrrol-1-yl)-N-(3-methyl-4-((1-methyl-1H-benzo[d]imidazol-5-yl)oxy)phenyl)pyrimido[5,4-d]pyrimidin-4-amine]	12.4	15	865	7.6	≥ 5000	1.4	1.7	–	–
Cc1cc(Nc2ncnc3cnc(N4C[C@@H]5COC[C@@H]54)nc23)ccc1Oc1ccc2c(c1)ncn2C [Example 348]	40.1	69.1	≥ 10000	14.5	≥ 5000	1.4	5	–	–
Cc1cc(Nc2ncnc3cnc(N(C)CC4COC4)nc23)ccc1Oc1ccc2c(c1)ncn2C [Example 402]	39.7	14.9	≥ 10000	14.9	≥ 5000	1.4	2.3	–	–
Cc1cc(Nc2ncnc3cnc(N4CCN[C@H](C(F)(F)F)C4)nc23)ccc1Oc1ccc2c(c1)ncn2C [Example 172, (S)—N-(3-methyl-4-((1-methyl-1H-benzo[d]imidazol-5-yl)oxy)phenyl)-6-(3-(trifluoromethyl)piperazin-1-yl)pyrimido[5,4-d]pyrimidin-4-amine]	31	35.2	8920	26.2	≥ 5000	1.5	2	–	–
Cc1cc(Nc2ncnc3cnc(N(C)[C@H]4CCOC4)nc23)ccc1Oc1ccc2c(c1)ncn2C [Example 131, (S)—N2-methyl-N8-(3-methyl-4-((1-methyl-1H-benzo[d]imidazol-5-yl)oxy)phenyl)-N2-(tetrahydrofuran-3-yl)pyrimido[5,4-d]pyrimidine-2,8-diamine]	21	20	3270	36.3	≥ 5000	1.6	1.4	–	–
FC(F)(F)[C@@H]1CN(c2ncc3ncnc(Nc4ccc(Oc5ccn6ncnc6c5)c(Cl)c4)c3n2)CCN1 [Example 130, (S)—N-(4-([1,2,4]triazolo[1,5-a]pyridin-7-yloxy)-3-chlorophenyl)-6-(3-(trifluoromethyl)piperazin-1-yl)pyrimido[5,4-d]pyrimidin-4-amine]	41.7	36.3	2560	43.3	≥ 5000	1.3	1	–	–
Cc1cc(Nc2ncnc3cnc(N4C[C@H](O)C(F)(F)C4)nc23)c(F)cc1Oc1ccc2c(c1)ncn2C [Example 202, (S)-4,4-difluoro-1-(8-((2-fluoro-5-methyl-4-((1-methyl-1H-benzo[d]imidazol-5-yl)oxy)phenyl)amino)pyrimido[5,4-d]pyrimidin-2-yl)pyrrolidin-3-ol]	25.7	31.1	≥ 10000	49.2	≥ 5000	1.2	6.4	–	–
Cc1cc(Nc2ncnc3cnc(N4CC5(C4)CC(O)(C(F)F)C5)nc23)ccc1Oc1ccc2c(c1)ncn2C [Example 210, 6-(difluoromethyl)-2-(8-((3-methyl-4-((1-methyl-1H-benzo[d]imidazol-5-yl)oxy)phenyl)amino)pyrimido[5,4-d]pyrimidin-2-yl)-2-azaspiro[3.3]heptan-6-ol]	40.5	30.2	≥ 10000	27	≥ 5000	1.7	–	36.8	–
Cc1cc(Nc2ncnc3cnc(N4CC[C@](C)(O)C4)nc23)ccc1Oc1ccc2c(c1)ncn2C [Example 179, (S)-3-methyl-1-(8-((3-methyl-4-((1-methyl-1H-benzo[d]imidazol-5-yl)oxy)phenyl)amino)pyrimido[5,4-d]pyrimidin-2-yl)pyrrolidin-3-ol]	10.1	12.9	3830	28.2	≥ 5000	1.9	15.3	–	–
Cc1cc(Nc2ncnc3cnc(N4CC5CC5(O)C4)nc23)ccc1Oc1ccc2c(c1)ncn2C (stereo not drawn) [Example 158, 3-(8-((3-methyl-4-((1-methyl-1H-benzo[d]imidazol-5-yl)oxy)phenyl)amino)pyrimido[5,4-d]pyrimidin-2-yl)-3-azabicyclo[3.1.0]hexan-1-ol]	29.4	58.2	≥ 10000	9.8	≥ 5000	1.9	33.8	–	–
Cc1cc(Nc2ncnc3cnc(N4CCC[C@@](C)(O)C4)nc23)c(F)cc1Oc1ccc2c(c1)ncn2C [Example 218, (R)-1-(8-((2-fluoro-5-methyl-4-((1-methyl-1H-benzo[d]imidazol-5-yl)oxy)phenyl)amino)pyrimido[5,4-d]pyrimidin-2-yl)-3-methylpiperidin-3-ol]	41.6	40.3	≥ 10000	43.8	≥ 5000	1.5	2.4	–	–
Cc1cc(Nc2ncnc3cnc(N4CCN[C@@H](C(F)(F)F)C4)nc23)ccc1Oc1ccc2c(c1)ncn2C [Example 182, (R)—N-(3-methyl-4-((1-methyl-1H-benzo[d]imidazol-5-yl)oxy)phenyl)-6-(3-(trifluoromethyl)piperazin-1-yl)pyrimido[5,4-d]pyrimidin-4-amine]	29.5	34.7	3130	17.7	≥ 5000	1.3	1.9	–	–
Cn1cnc2cc(Oc3ccc(Nc4ncnc5cnc(N6CC[C@@H](CC#N)C6)nc45)cc3Cl)ccc21 [Example 134, (S)-2-(1-(8-((3-chloro-4-((1-methyl-1H-benzo[d]imidazol-5-yl)oxy)phenyl)amino)pyrimido[5,4-d]pyrimidin-2-yl)pyrrolidin-3-yl)acetonitrile]	55.1	–	≥ 10000	8.5	≥ 5000	1.8	6.8	–	–
Cc1cc(Nc2ncnc3cnc(N(C)[C@H]4C[C@@](C)(O)C4)nc23)ccc1Oc1ccc2c(c1)ncn2C [Example 165, (1s, 3s)-1-methyl-3-(methyl(8-((3-methyl-4-((1-methyl-1H-benzo[d]imidazol-5-yl)oxy)phenyl)amino)pyrimido[5,4-d]pyrimidin-2-yl)amino)cyclobutan-1-ol]	7.5	5.6	216	11.4	≥ 5000	2.1	–	–	–
Cc1cc(Nc2ncnc3cnc(N[C@@H]4CNCC4(F)F)nc23)ccc1Oc1ccc2c(c1)ncn2C [Example 297]	17.6	40	3320	29.4	≥ 5000	3.2	–	–	–
Cn1cnc2cc(Oc3ccc(Nc4ncnc5cnc(N6CCN7CCOC[C@H]7C6)nc45)cc3Cl)ccc21.O=C(O)C(F)(F)F.O=C(O)C(F)(F)F [Example 150, (R)—N-(3-chloro-4-((1-methyl-1H-benzo[d]imidazol-5-yl)oxy)phenyl)-6-(hexahydropyrazino[2,1-c][1,4]oxazin-8(1H)-yl)pyrimido[5,4-d]pyrimidin-4-amine bis(2,2,2-trifluoroacetate)]	–	22.3	≥ 10000	9.1	≥ 5000	2.2	–	–	32
Cc1cc(Nc2ncnc3cnc(N4CC5(CC(O)C5)C4)nc23)ccc1Oc1ccc2c(c1)ncn2C [Example 213, 2-(8-((3-methyl-4-((1-methyl-1H-benzo[d]imidazol-5-yl)oxy)phenyl)amino)pyrimido[5,4-d]pyrimidin-2-yl)-2-azaspiro[3.3]heptan-6-ol]	19.7	33.9	≥ 10000	34.1	≥ 5000	2.4	–	–	–
